These results are taken from PubChem BioAssay AID1259346.

For the assay, the system named is HCT116 TERT promoter luciferase reporter, 16 h. The assay is described as follows: modulation of TERT promoter-driven luciferase – HCT116 cells, human, dose response (AID 1259346).

Calls of active or inactive are those of the source.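 Rule for the calls: active = IC50 below 1 nM; inactive = the rest.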

In the case of `COC(=O)CCc1c(C)nc2cc(-c3ccc(OC)cc3)nn2c1C`, the IC50 was under 1 nM.

On to `Cc1nc2cc(-c3ccc(C#CCO)cc3)nn2c(C)c1CCC(=O)O`, for which the IC50 is 3600 nM (inactive).

Regarding `Cc1nc2cc(-c3cccc(Br)c3)nn2c(C)c1CCC(=O)O`, the IC50 was 346 nM (inactive).

For the compound `Cc1nc2cc(-c3ccccc3)nn2c(C)c1CCC(=O)O`, the IC50 is 7 nM (inactive).

As for `Cc1nc2cc(-c3ccc(Br)cc3)nn2c(C)c1CCC(=O)O`, the IC50 was under 1 nM.

In general, IC50 refers to the midpoint of a concentration-inhibition curve.
